Test results reported in US20040024024A1, “Aromatic sulfone hydroxamates and their use as protease inhibitors” (priority 2001, published 2004).
pIC50, pKi: −log10 of the molar value.

Assays:
Human recombinant MMP-1 = target: T1, Human recombinant MMP-1 (Homo sapiens, UniProt P03956); assay: In vitro MMP inhibition, Ki determination (fluorogenic substrate II); type: biochemical
T1 construct: made in house; host or cells: MMP-1-transfected HT-1080 cells (spent media)
T1 sequence (P03956 100-469): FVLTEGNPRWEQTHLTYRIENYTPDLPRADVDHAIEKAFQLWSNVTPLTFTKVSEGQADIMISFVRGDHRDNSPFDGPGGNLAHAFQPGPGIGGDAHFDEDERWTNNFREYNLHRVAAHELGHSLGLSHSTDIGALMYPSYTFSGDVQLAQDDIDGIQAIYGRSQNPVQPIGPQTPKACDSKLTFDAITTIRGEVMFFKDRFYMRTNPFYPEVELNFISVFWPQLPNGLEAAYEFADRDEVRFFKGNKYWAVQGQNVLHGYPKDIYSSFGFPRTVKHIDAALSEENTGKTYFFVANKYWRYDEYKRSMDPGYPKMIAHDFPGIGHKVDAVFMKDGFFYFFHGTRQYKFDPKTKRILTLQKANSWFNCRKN
Protocol: Several hydroxamates and salts thereof were analyzed in in vitro assays to determine their ability to inhibit the MMP cleavage of peptide substrates. Inhibition (Ki) and IC50 constants were calculated from the assayed hydroxamate-MMP interactions.
Human recombinant MMP-1, MMP-2, MMP-9, MMP-13, and MMP-14 were used in this assay. All enzymes were prepared in Assignee's laboratories following usual laboratory procedures. Protocols for the preparation and use of these enzymes are available in the scientific literature. See, e.g., Enzyme Nomenclature (Academic Press, San Diego, Calif., 1992) (and the citations therein). See also, Frije et al., J. Biol. Chem., 26(24), 16766-73 (1994).
The MMP-1 proenzyme was purified from the spent media of MMP-1-transfected HT-1080 cells provided by Dr. Harold Welgus of Washington University (St. Louis, Mo.). The protein was purified on a zinc chelating column.
All MMPs were activated using 4-aminophenylmercuric acetate (“APMA”, Sigma Chemical, St. Louis, Mo.) or trypsin. MMP-9 also was activated using human recombinant MMP-3 (purified in Assignee's laboratory following standard cloning and purification techniques).
Two fluorogenic, methoxycoumarin-containing polypeptide substrates were used in the MMP inhibition assays:
MCA-ArgProLeuGlyLeuDpaAlaArgGluArgNH2 (II)
Here, “Dpa” is 3-(2,4-dinitrophenyl)-L-2,3-diaminopropionyl group, and “MCA” is 7-methoxycoumarin-4-yl acetyl. Substrate (I) was purchased from Baychem (Redwood City, Calif.), and substrate II was prepared Assignee's laboratory. Substrate I was used in the IC50 determination assays, while substrate II was used in the Ki determination assays. In the absence of MMP inhibitory activity, either substrate is cleaved at the Gly-Leu peptide bond. This cleavage separates the highly fluorogenic peptide from the 2,4-dinitrophenyl quencher, thus resulting in increase of fluorescent intensity.
The stock solutions of the assayed hydroxamates (or salts thereof) were prepared in 1% dimethyl sulfoxide (DMSO). These stock solutions were diluted in Buffer A (100 mM Tris-HCl, 100 mM NaCl, 10 mM CaCl2, 0.05% polyoxyethylene 23 lauryl ether, pH 7.5) to obtain solutions with different hydroxamate concentrations, i.e., assay solutions with different concentrations of the assayed MMP inhibitory compound. The experiment controls contained the same amount of Buffer A/DMSO as the assayed sample, but contained no hydroxamate (or salt thereof).
The assays from which the Ki determinations were made were performed as follows. The assayed hydroxamate samples were incubated in separate wells of untreated white polystyrene plates (Nunc Nalgene International, Rochester, N.Y.), and analyzed on a Tecan SpectraFlour Plus plate reader. The excitation wavelength was 330 nm, and the emission wavelength—420 nm. All samples (assayed hydroxamates and controls) were incubated in separate plate wells at room temperature for 1 hr in the presence of 4 μM of MMP substrate (II). In the absence of MMP inhibitory activity, substrate II was cleaved at the Gly-Leu bond resulting in an increase of relative fluorescence. Inhibition was observed as a reduced rate of this increase in relative fluorescence. The various hydroxamates were analyzed using a single low enzyme concentration with a single substrate concentration fixed at or below the Km. This protocol is a modification of method by Knight et al., FEBS Lett., 296(3), 263-266 (1992). Apparent inhibitory constants were determined by non-linear regression of reaction velocity as a function of inhibitor and enzyme concentration using Morrison's equation, as described by Kuzmic, Anal. Biochem. 286, 45-50 (2000). Modifications were made in the non-linear regression method to allow a common control reaction rate and effective enzyme concentration to be shared between all dose-response relationships on a given assay plate. […]

Human recombinant MMP-2 = target: T2, Human recombinant MMP-2 (Homo sapiens, UniProt P08253); assay: In vitro MMP inhibition, IC50 determination (fluorogenic substrate I); type: biochemical
T2 construct: made in house; host or cells: MMP-2-transfected p2AHT2 cells
T2 sequence (P08253 110-660): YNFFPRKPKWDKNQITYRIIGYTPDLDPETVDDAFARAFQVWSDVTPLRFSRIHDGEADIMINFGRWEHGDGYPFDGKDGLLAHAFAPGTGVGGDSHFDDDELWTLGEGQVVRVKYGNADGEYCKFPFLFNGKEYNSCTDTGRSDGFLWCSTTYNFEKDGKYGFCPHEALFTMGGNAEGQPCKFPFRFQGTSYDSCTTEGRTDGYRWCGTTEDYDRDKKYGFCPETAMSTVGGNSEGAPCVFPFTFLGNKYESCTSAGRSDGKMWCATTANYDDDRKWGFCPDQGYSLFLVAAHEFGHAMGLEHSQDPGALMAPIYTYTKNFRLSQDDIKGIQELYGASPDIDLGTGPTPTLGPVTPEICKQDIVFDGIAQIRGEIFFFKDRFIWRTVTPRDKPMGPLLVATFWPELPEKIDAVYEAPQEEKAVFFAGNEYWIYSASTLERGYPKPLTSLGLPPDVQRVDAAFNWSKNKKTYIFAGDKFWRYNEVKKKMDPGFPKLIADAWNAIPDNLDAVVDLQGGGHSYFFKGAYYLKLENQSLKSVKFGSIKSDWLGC
Outline: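 APMA- or trypsin-activated recombinant MMP-2 was incubated at room temperature with serial inhibitor dilutions in Tris buffer pH 7.5 (100 mM NaCl, 10 mM CaCl2, 0.05% Brij), with DMSO from 1% stocks, and 4 μM substrate I. Cleavage was read by fluorescence at 328/415 nm; IC50 was taken from the loss of fluorescence versus inhibitor concentration.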

pKi (Human recombinant MMP-1; value in parentheses) | pIC50 (Human recombinant MMP-2; value outside parentheses) | pKi (Human recombinant MMP-1; value in parenthesis) | pIC50 (Human recombinant MMP-2; value outside parenthesis) | Structure (SMILES)
< 5.00 | 7.09 |  |  | O=C(NO)C1(S(=O)(=O)c2ccc(OCCCc3cc(-c4ccc(F)cc4F)cs3)cc2)CCOCC1 [Example 587]
 |  | < 5.00 | 6.00 | O=C(NO)C1(S(=O)(=O)c2ccc(OCCCc3cccc(-c4cccc(F)c4)c3)cc2)CCOCC1 [Example 161]
 |  | 5.06 | 6.57 | O=C(NO)C1(S(=O)(=O)c2ccc(OCCCc3cccc(-c4ccccn4)c3)cc2)CCOCC1 [Example 148]
< 5.00 | 7.69 |  |  | O=C(NO)C1(S(=O)(=O)c2ccc(OCCCc3nc(-c4cccnc4)no3)cc2)CCOCC1 [Example 578]
 |  | < 5.00 | 5.86 | O=C(NO)C1(S(=O)(=O)c2ccc(OCCCc3cccc(-c4ccccc4F)c3)cc2)CCOCC1 [Example 163]
< 5.00 | 5.46 |  |  | O=C(NO)C1(S(=O)(=O)c2ccc(OCCCc3cccc(-c4ccc(C(F)(F)F)cc4)c3)cc2)CCOCC1 [Example 625]
 |  | < 5.00 | 6.74 | O=C(NO)C1(S(=O)(=O)c2ccc(OCCOc3cccc(-c4ccccc4)c3)cc2)CCOCC1 [Example 157]
 |  | 5.13 | 6.73 | O=C(NO)C1(S(=O)(=O)c2ccc(OCCCc3cccc(-c4ccco4)c3)cc2)CCOCC1 [Example 97]
< 5.00 | > 10.00 |  |  | O=C(NCCOc1ccc(S(=O)(=O)C2(C(=O)NO)CCOCC2)cc1)c1cc2ccccc2[nH]1 [Example 599]
 |  | < 5.00 | 7.04 | CC(C)C(=O)c1cccc(CCCOc2ccc(S(=O)(=O)C3(C(=O)NO)CCOCC3)cc2)c1 [Example 95]
 |  | < 5.00 | 7.59 | COc1ccc(/C(C#N)=C/CCCOc2ccc(S(=O)(=O)C3(C(=O)NO)CCN(C4CC4)CC3)cc2)cc1 [Example 233]
< 5.00 | 6.47 |  |  | O=C(NO)C1(S(=O)(=O)c2ccc(OCCCc3cc(-c4ccc(OC(F)(F)F)cc4)cs3)cc2)CCOCC1 [Example 608]
 |  | 5.84 | 8.60 | O=C(CCCOc1ccc(S(=O)(=O)C2(C(=O)NO)CCOCC2)cc1)Nc1ccc(OC(F)(F)F)cc1 [Example 250]
 |  | < 5.00 | 6.23 | Cc1cc(NC(=O)CCCOc2ccc(S(=O)(=O)C3(C(=O)NO)CCOCC3)cc2)ccc1OC(C)C [Example 290]

Structure (SMILES) | pKi (Human recombinant MMP-1; value in parentheses) | pIC50 (Human recombinant MMP-2; value outside parentheses) | pKi (Human recombinant MMP-1; value in parenthesis) | pIC50 (Human recombinant MMP-2; value outside parenthesis)
COCCN1CCC(C(=O)NO)(S(=O)(=O)c2ccc(OCCCc3nc(-c4ccc(OC(F)(F)F)cc4)no3)cc2)CC1 [Example 190] |  |  | < 5.00 | 6.78
